Like-named read-outs stand apart in the source and are kept apart here.

Experimental findings from patent US20210361224A1, “BIOLOGICAL GAS (VOCs) MEASURMENT DEVICE” (National University Corporation Tokyo Medical and Dental …, priority 2017, published 2021) are described below.

For series [1] the following is noted: compared with ethanol in exhaled breath, test subject ingested 0.4 g/kg of body weight of ethanol by drinking.
The conditions of series [2]: palm of hand; 0.4 g of ethanol per kilogram of body weight orally ingested; measured 10 to 40 minutes after drinking.

Turning to `CCO` [ethanol], the “delay until the amount of ethanol contained in skin gas peaks” value in series [1] (collector attached to back of hand) is given as “approximately 23 minutes”; in series [1] (collector attached to wrist on the palm side), “approximately 18 minutes”. For the same molecule, the “time after drinking at which concentration of ethanol released from the skin reached a peak value” in series [2] is 32 min.
